Experimental data as given in article PMC11879040, “Advancing systemic toxicity risk assessment: Evaluation of a NAM-based toolbox approach” (Toxicological Sciences, 2024).
Read-outs that look alike come from different tables or passages of the source.

What was measured:
[1] = target: cAMP-specific 3',5'-cyclic phosphodiesterase 4D, PDE4D (h) (Homo sapiens, UniProt Q08499); test: IPP PDE4D enzymatic activity; type: biochemical; details: control Ro 20-1724
[2] = target: Prostaglandin G/H synthase 1, PTGS1(h) (Homo sapiens, UniProt P23219); test: IPP PTGS1 enzymatic activity; type: biochemical; details: control Diclofenac
Chain of Prostaglandin G/H synthase 1, PTGS1(h) (P23219 24-599): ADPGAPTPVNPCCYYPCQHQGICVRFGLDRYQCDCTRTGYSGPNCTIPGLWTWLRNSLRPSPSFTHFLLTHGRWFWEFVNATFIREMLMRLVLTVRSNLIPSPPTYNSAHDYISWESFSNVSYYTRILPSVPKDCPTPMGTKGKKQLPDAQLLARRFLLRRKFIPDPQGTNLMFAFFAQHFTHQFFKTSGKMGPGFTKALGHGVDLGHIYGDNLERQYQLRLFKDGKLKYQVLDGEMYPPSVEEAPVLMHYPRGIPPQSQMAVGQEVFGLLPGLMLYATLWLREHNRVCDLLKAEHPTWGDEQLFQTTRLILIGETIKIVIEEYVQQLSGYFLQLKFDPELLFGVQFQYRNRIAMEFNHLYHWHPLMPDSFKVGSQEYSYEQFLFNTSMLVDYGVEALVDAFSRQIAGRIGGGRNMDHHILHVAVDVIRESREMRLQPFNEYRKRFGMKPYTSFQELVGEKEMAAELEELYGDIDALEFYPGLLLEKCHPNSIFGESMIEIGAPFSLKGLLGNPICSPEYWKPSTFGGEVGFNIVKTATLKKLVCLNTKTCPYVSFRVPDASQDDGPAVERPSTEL

[3] = test system: Potassium Voltage-Gated Channel Kv non-selective, KCNQ1 (r); test: IPP KCNQ1 binding (antagonist radioligand); design: species or system rat
[4] = target: T1, Estrogen receptor, ER1 (h) (Homo sapiens, UniProt P03372); test: IPP ER1 coactivator recruitment (antagonist); type: biochemical; details: estriol
T1 construct: purchased Eurofins Cerep (SafetyScreen44-based IPP panel)
T1 sequence (P03372 1-595): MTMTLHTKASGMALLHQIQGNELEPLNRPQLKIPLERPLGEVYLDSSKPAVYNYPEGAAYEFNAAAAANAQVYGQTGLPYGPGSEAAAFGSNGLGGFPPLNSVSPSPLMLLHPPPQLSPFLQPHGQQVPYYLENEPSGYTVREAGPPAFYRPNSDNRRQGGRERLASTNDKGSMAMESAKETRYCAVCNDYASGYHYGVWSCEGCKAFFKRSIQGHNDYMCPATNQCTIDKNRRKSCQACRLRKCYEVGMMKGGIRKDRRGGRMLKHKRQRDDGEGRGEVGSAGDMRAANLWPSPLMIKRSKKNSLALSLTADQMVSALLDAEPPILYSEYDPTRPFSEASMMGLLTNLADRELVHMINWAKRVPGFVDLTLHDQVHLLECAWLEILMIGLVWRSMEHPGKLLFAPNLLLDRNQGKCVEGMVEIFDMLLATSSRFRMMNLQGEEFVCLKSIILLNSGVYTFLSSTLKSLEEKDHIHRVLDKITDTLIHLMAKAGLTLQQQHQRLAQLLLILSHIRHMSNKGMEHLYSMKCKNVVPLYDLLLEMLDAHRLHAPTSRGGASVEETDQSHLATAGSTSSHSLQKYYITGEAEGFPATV

HepaRG cells = test: High-throughput transcriptomics (HTTr, TempO-Seq), HepaRG, 24 h; type: cell-based, human; details: HepaRG; for pod_httr_bifrost PoD: HTTr BIFROST PoD; for podl_path_minbmd PoD: HTTr minimum pathway BMD(L)
Description: HepG2, HepaRG, and MCF7 cells were treated with each compound for 24 h across a dose range of 7 concentrations and lysed using TempO-Seq lysis buffer (BioSpyder Technologies, proprietary kit, see [Middleton et al. 2022] for method details). Sequencing was performed using TempO-Seq (BioClavis) version 2 of the human whole transcriptome panel and analyzed as described previously in Middleton et al.

[5] = test system: 63 targets with known safety liabilities; test: In vitro pharmacological profiling (IPP) panel, screening at 10 or 100 µM and dose response, minimum IC50/AC50; type: biochemical; details: lowest AC50 across IPP panel (systemic targets); cell_type -; read-out: ipp_lowest_ac50_systemic PoD
[6] = target: T2, 5-hydroxytryptamine receptor 1A, HTR1A (h) (Homo sapiens, UniProt P08908); details: control 8-OH-DPAT
T2 sequence (P08908 1-422): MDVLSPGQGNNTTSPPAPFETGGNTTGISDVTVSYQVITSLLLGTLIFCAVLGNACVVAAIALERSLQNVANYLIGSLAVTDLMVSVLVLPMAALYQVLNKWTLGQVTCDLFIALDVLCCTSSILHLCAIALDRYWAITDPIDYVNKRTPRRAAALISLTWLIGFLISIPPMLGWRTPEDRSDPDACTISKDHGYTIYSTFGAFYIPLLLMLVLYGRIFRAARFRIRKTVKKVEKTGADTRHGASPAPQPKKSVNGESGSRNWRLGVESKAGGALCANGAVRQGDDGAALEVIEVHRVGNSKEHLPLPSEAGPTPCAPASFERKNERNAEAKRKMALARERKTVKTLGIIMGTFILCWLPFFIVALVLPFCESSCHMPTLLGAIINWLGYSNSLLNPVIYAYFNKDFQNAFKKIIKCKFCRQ

[7] = target: 5-hydroxytryptamine receptor 2B, HTR2B (h) (Homo sapiens, UniProt P41595)
Chain of 5-hydroxytryptamine receptor 2B, HTR2B (h) (P41595 whole entry): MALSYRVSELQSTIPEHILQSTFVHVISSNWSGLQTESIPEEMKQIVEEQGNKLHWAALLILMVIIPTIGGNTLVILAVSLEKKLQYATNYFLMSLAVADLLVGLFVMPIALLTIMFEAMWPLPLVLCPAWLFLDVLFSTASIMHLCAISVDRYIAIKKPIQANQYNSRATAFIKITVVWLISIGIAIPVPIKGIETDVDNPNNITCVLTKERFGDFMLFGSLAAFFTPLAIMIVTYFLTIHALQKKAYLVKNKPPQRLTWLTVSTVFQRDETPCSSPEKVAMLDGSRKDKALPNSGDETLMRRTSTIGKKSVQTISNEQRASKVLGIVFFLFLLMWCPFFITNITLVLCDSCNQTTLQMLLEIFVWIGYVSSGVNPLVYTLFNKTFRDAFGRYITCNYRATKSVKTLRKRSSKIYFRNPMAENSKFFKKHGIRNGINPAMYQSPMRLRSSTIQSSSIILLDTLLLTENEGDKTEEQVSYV

[8] = target: T3, Muscarinic acetylcholine receptor M2, CHRM2 (h) (Homo sapiens, UniProt P08172); details: control methoctramine
T3 sequence (P08172 1-466): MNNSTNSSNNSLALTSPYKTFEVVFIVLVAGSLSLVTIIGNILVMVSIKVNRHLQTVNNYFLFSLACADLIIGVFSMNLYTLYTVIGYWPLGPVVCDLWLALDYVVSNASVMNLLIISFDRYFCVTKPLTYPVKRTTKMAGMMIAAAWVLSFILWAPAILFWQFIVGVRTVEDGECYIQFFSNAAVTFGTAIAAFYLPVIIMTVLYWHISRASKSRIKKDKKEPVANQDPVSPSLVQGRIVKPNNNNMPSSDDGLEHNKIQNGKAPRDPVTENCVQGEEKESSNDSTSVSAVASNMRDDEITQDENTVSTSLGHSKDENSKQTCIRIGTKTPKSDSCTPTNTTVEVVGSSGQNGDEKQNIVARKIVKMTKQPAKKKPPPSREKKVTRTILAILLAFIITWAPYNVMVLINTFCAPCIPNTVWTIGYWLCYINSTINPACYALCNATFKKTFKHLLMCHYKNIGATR

[9] = target: T4, Peroxisome proliferator-activated receptor alpha, PPARA (h) (Homo sapiens, UniProt Q07869); test: IPP PPARA coactivator recruitment (agonist); type: biochemical; details: 10 uM, GW 7647 for control
T4 sequence (Q07869 1-468): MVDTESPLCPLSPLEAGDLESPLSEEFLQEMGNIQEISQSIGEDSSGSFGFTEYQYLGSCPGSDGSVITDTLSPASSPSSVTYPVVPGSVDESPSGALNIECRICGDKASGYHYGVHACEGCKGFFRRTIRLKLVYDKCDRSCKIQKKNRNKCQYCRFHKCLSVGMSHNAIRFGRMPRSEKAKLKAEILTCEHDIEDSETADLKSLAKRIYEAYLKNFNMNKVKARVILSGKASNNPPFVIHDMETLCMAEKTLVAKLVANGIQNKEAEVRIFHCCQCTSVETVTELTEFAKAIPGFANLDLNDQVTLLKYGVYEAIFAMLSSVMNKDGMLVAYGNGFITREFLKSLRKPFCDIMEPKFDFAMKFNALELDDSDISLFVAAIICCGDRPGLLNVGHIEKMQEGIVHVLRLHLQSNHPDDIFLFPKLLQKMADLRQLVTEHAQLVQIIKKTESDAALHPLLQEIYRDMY

[10] = target: Potassium voltage-gated channel subfamily H member 2 hERG, KCNH2 (h) (Homo sapiens, UniProt Q12809)
Chain of Potassium voltage-gated channel subfamily H member 2 hERG, KCNH2 (h) (Q12809 whole entry): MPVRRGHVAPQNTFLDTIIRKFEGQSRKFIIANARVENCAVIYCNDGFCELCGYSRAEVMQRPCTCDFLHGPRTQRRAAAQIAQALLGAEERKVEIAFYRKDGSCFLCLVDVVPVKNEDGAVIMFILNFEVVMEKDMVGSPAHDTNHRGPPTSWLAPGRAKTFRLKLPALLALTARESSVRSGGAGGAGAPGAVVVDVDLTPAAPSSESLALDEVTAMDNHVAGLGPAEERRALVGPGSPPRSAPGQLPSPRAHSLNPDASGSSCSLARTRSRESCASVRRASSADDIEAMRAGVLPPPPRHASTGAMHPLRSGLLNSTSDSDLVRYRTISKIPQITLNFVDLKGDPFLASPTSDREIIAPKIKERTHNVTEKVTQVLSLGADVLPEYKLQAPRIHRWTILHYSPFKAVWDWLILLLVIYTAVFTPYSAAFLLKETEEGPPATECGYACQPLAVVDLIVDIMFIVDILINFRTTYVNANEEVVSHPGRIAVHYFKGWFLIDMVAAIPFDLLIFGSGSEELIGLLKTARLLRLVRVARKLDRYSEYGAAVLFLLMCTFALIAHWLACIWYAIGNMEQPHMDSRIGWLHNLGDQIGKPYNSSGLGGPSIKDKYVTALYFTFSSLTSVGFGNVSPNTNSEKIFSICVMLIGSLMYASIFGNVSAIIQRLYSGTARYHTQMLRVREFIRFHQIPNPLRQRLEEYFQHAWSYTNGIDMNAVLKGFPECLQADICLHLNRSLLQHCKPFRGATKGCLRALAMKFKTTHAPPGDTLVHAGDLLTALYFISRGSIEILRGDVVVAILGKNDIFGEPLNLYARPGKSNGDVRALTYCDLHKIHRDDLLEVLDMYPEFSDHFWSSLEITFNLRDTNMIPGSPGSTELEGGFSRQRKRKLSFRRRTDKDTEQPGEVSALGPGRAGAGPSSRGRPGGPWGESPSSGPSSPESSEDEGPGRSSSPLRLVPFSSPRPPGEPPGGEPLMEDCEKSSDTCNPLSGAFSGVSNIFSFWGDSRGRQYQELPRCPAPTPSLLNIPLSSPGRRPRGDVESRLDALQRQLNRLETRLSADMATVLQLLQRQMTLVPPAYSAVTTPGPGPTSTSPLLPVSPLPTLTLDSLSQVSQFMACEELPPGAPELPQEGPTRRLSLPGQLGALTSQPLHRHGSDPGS

[11] = IPP screening at 10 uM, control (±)DOI

Chain of cAMP-specific 3',5'-cyclic phosphodiesterase 4D, PDE4D (h) (Q08499 whole entry): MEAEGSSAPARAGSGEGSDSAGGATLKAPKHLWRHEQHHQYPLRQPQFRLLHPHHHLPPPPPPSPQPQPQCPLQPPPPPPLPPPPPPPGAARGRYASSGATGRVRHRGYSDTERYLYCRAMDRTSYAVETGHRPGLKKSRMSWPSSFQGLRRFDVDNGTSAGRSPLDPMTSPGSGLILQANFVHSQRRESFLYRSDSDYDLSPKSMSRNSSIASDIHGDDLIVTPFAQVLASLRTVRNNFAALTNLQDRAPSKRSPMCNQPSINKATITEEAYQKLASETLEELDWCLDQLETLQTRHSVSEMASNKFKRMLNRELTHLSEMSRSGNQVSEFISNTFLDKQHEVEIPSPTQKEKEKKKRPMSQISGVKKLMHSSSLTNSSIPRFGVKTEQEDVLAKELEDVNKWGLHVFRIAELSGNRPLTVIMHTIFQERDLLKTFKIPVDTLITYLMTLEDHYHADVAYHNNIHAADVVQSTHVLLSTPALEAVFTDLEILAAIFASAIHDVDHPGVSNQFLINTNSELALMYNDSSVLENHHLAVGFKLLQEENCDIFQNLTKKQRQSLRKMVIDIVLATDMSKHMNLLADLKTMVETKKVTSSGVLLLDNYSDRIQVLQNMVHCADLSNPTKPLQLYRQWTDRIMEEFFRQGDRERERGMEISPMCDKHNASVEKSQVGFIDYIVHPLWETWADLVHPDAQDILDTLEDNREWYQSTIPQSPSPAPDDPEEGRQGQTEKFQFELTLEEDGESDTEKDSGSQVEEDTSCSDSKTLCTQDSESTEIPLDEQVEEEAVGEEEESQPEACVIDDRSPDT

| Compound | Enzymatic activity ([1]; IPP screening at 10 uM) [%] | Enzymatic activity ([2]; IPP screening at 10 uM) [%] | Specific binding [3] [%] | IPP screening %, Coactivator recruitment ([4]; 10 uM) [%] | pod_httr_bifrost PoD (HepaRG cells) [µM] | podl_path_minbmd PoD (HepaRG cells) [µM] | AC50 [5] [nM] | Specific binding ([6]; IPP screening at 10 uM) [%] | Specific binding [7, 11] [%] | Specific binding ([8]; IPP screening at 10 uM) [%] | IPP screening %, Coactivator recruitment [9] [%] | other results |
| --- | --- | --- | --- | --- | --- | --- | --- | --- | --- | --- | --- | --- |
| CCOP(=S)(OCC)Oc1nc(Cl)c(Cl)cc1Cl [Chlorpyrifos, O,O-Diethyl O-(3,5,6-trichloropyridin-2-yl) phosphorothioate] | 51.8 | 2.7 | 15.4 | 9.0 | 0.07063 | 1.957 | 1850 | 11.6 | 82.5 | -21.3 | – | – |
| CC(C)(C)c1ccc(CCOc2ncnc3ccccc23)cc1 [Fenazaquin, 4-[2-(4-tert-Butylphenyl)ethoxy]quinazoline] | 14.7 | -4.7 | – | 4.0 | 0.006087 | 0.07466 | 2860 | -11.2 | 77.1 | 14.3 | 1.2 | Specific binding ([3]; IPP screening at 10 uM, control α-dendrotoxin): -1.6%; IPP screening %, Specific binding ([10]; 10 uM, [3H] Dofetilide, control Terfenadine): 34.9% |
| CC1(C)O[C@@H]2[C@@H](CO[C@@]3(COS(N)(=O)=O)OC(C)(C)O[C@@H]23)O1 [Topiramate, [(3aS,5aR,8aR,8bS)-2,2,7,7-Tetramethyltetrahydro-2H,3aH,7H-bis[1,3]dioxolo[4,5-b:4',5'-d]pyran-3a-yl]methyl sulfamate (non-preferred name)] | – | – | – | – | 28.4144 | 48.7054 | 160 | – | – | – | – | Enzymatic activity ([1]; IPP screening at 100 uM): 27.9%; Enzymatic activity ([2]; IPP screening at 100 uM): -1.5%; Specific binding ([3]; IPP screening at 100 uM, control α-dendrotoxin): -2.7%; IPP screening %, Coactivator recruitment ([4]; 100 uM, * denotes assay interference (2-Amino-6-chloro-4-nitrophenol, HC Red 3)): -1.0%; Specific binding ([6]; IPP screening at 100 uM): 18.5%; Specific binding ([7]; IPP screening at 100 uM; control ±)DOI): -0.4%; Specific binding ([8]; IPP screening at 100 uM): 0.7%; IPP screening %, Specific binding ([10]; human): -13.1% |
| (4S,4aR,5S,5aR,6S,12aS)-4-(Dimethylamino)-3,5,6,10,12,12a-hexahydroxy-6-methyl-1,11-dioxo-1,4,4a,5,5a,6,11,12a-octahydrotetracene-2-carboxamide--hydrogen chloride (1/1) [Oxytetracycline hydrochloride] | 9.6 | -5.1 | -19.0 | – | – | – | – | 1.5 | 5.9 | – | -0.7 | IPP screening %, Specific binding [10]: -10.2% |
| mixture of 2- and 3-tert-butyl-4-methoxyphenol [Butylated Hydroxyanisole] | 12.2 | 46.1 | 4.9 | – | – | – | – | -7.7 | 80.6 | 8.9 | -0.3 | – |
